Assay results published in PubChem BioAssay AID504638 (National Center for Advancing Translational Sciences (NCATS), 2011).

Test system: mouse liver microsomes, stability LC-MS/MS, 1 uM
Assay: Inhibitors of HPGD: Mouse Liver Microsome Profiling
Settings: at 1 µM, active compounds read high

half-life | Structure (SMILES)
9 min | Cc1cccc(-n2cnc3cc(C(=O)N4CCCCC4)ccc32)c1
8 min | Cc1cc(-c2nnc3n2CCCCC3)c(C)n1-c1ccccc1
